Data taken from patent US6914045B2, “Glycopeptide antibiotics” (Wyeth Holdings Corporation, priority 2001, dated 2005).

Assays:
Test in all cases: in vitro antibacterial evaluation, MIC by broth dilution
Type in all cases: cell-based
Enterococcus sp. = conditions: broth dilution, 18 hours at 35° C.
Method in brief: (§1)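 Broth dilution per NCCLS standard M7-A2 in Muller-Hinton II […], with an inoculum of 5×10^5 CFU/mL and antibiotic spanning 64-0.06 μg/mL. The MIC is the lowest concentration that inhibits growth of the organism.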

Escherichia coli = conditions: 18 hours at 35° C.
Method in brief: as §1

Staphylococcus sp. = conditions: broth dilution, 18 hours at 35° C.
Method in brief: as §1

Streptococcus sp. = conditions: broth dilution, 18 hours at 35° C.
Method in brief: as §1

CC(c1ccccc1)C1NC(=O)CNC(=O)C(CO)NC(=O)C(C(O)C2CNC(=N)N2C2OC(CO)C(O)C(O)C2O)NC(=O)C(C(O)C2CNC(=N)N2)NC(=O)C(Cc2ccc(OC3OC(CO)C(OC4OC(CO)C(O)C5OC(c6ccccc6)OC45)C(O)C3O)cc2)NC1=O (single isomer, unassigned) [Example 104b, Cyclo[glycyl-β-methylphenylalanyl-O-[4-O-(2,3-O-benzylidenehexopyranosyl)hexopyranosyl]-tyrosyl-3-(2-iminoimidazolidin-4-yl)seryl-3-(3-hexopyranosyl-2-iminoimidazolidin-4-yl)-serylseryl]]
>0.5 µg/mL: MIC Escherichia coli (ATCC 25922) (Escherichia coli; strain ATCC 25922) | MIC Escherichia coli (GC 4559) (Escherichia coli; strain GC 4559)
0.5 µg/mL: MIC Enterococcus avium (GC 4558) (Enterococcus sp.; Enterococcus avium (GC 4558)) | MIC Enterococcus faecalis (ATCC 29212) (Enterococcus sp.; Enterococcus faecalis (ATCC 29212)) | MIC Enterococcus faecalis (GC 2242) (Enterococcus sp.; Enterococcus faecalis (GC 2242)) | MIC Enterococcus faecalis (GC 2691) (Enterococcus sp.; Enterococcus faecalis (GC 2691)) | MIC Enterococcus faecalis (GC 3059) (Enterococcus sp.; Enterococcus faecalis (GC 3059)) | MIC Enterococcus faecalis (GC 4552) (Enterococcus sp.; Enterococcus faecalis (GC 4552)) | MIC Enterococcus faecalis (GC 4553) (Enterococcus sp.; Enterococcus faecalis (GC 4553)) | MIC Enterococcus faecalis (GC 4554) (Enterococcus sp.; Enterococcus faecalis (GC 4554)) | MIC Enterococcus faecalis (GC 6189) (Enterococcus sp.; Enterococcus faecalis (GC 6189)) | MIC Enterococcus faecium (GC 2243) (Enterococcus sp.; Enterococcus faecium (GC 2243)) | MIC Enterococcus faecium (GC 4556) (Enterococcus sp.; Enterococcus faecium (GC 4556)) | MIC Enterococcus faecium (GC 4557) (Enterococcus sp.; Enterococcus faecium (GC 4557)) | MIC Enterococcus faecalis (ATCC 29212) (Enterococcus sp.; strain ATCC 29212) | MIC Enterococcus faecalis (GC 2242) (Enterococcus sp.; strain GC 2242) | MIC Enterococcus faecium (GC 2243) (Enterococcus sp.; strain GC 2243) | MIC Enterococcus faecalis (GC 2691) (Enterococcus sp.; strain GC 2691) | MIC Enterococcus faecalis (GC 3059) (Enterococcus sp.; strain GC 3059) | MIC Enterococcus faecalis (GC 4552) (Enterococcus sp.; strain GC 4552) | MIC Enterococcus faecalis (GC 4553) (Enterococcus sp.; strain GC 4553) | MIC Enterococcus faecalis (GC 4554) (Enterococcus sp.; strain GC 4554) | MIC Enterococcus faecium (GC 4556) (Enterococcus sp.; strain GC 4556) | MIC Enterococcus faecium (GC 4557) (Enterococcus sp.; strain GC 4557) | MIC Enterococcus avium (GC 4558) (Enterococcus sp.; strain GC 4558) | MIC Enterococcus faecalis (GC 6189) (Enterococcus sp.; strain GC 6189) | MIC Escherichia coli (GC 4560) (Escherichia coli; strain GC 4560) | MIC Staphylococcus aureus (ATCC 29213) (Staphylococcus sp.) | MIC Staphylococcus aureus (GC 1131) (Staphylococcus sp.) | MIC Staphylococcus aureus (GC 3051) (Staphylococcus sp.) | MIC Staphylococcus aureus (GC 3053) (Staphylococcus sp.) | MIC Staphylococcus aureus (GC 4541) (Staphylococcus sp.) | MIC Staphylococcus aureus (GC 4542) (Staphylococcus sp.) | MIC Staphylococcus aureus (GC 4544) (Staphylococcus sp.) | MIC Staphylococcus aureus (GC 4545) (Staphylococcus sp.) | MIC Staphylococcus aureus-SMITH (GC 4543) (Staphylococcus sp.) | MIC Staphylococcus haemolyticus (GC 4546) (Staphylococcus sp.) | MIC Staphylococcus haemolyticus (GC 4546) (Staphylococcus sp.; strain GC 4546) | MIC Staphylococcus aureus-SMITH (GC 4543) (Staphylococcus sp.; strain SMITH GC 4543) | MIC Staphylococcus aureus (ATCC 29213) (Staphylococcus sp.; strain ATCC 29213) | MIC Staphylococcus aureus (GC 1131) (Staphylococcus sp.; strain GC 1131) | MIC Staphylococcus aureus (GC 3051) (Staphylococcus sp.; strain GC 3051) | MIC Staphylococcus aureus (GC 3053) (Staphylococcus sp.; strain GC 3053) | MIC Staphylococcus aureus (GC 4541) (Staphylococcus sp.; strain GC 4541) | MIC Staphylococcus aureus (GC 4542) (Staphylococcus sp.; strain GC 4542) | MIC Staphylococcus aureus (GC 4544) (Staphylococcus sp.; strain GC 4544) | MIC Staphylococcus aureus (GC 4545) (Staphylococcus sp.; strain GC 4545) | MIC Streptococcus agalactiae (GC 4564) (Streptococcus sp.; Streptococcus agalactiae (GC 4564)) | MIC Streptococcus agalactiae (GC 4564) (Streptococcus sp.; strain GC 4564)
0.12 µg/mL: MIC Streptococcus pneumoniae (ATCC 6301) (Streptococcus sp.; Streptococcus pneumoniae (ATCC 6301)) | MIC Streptococcus pneumoniae (GC 1894) (Streptococcus sp.; Streptococcus pneumoniae (GC 1894)) | MIC Streptococcus pneumoniae (GC 4565) (Streptococcus sp.; Streptococcus pneumoniae (GC 4565)) | MIC Streptococcus pyogenes (GC 4563) (Streptococcus sp.; Streptococcus pyogenes (GC 4563)) | MIC Streptococcus pneumoniae (ATCC 6301) (Streptococcus sp.; strain ATCC 6301) | MIC Streptococcus pneumoniae (GC 1894) (Streptococcus sp.; strain GC 1894) | MIC Streptococcus pyogenes (GC 4563) (Streptococcus sp.; strain GC 4563) | MIC Streptococcus pneumoniae (GC 4565) (Streptococcus sp.; strain GC 4565)
8 µg/mL: MIC Coagulase Negative Staphylococcus (GC 4551) (Staphylococcus sp.) | MIC Coagulase Negative Staphylococcus (GC 4551) (Staphylococcus sp.; strain GC 4551)
2 µg/mL: MIC Coagulase Negative Staphylococcus (GC 6257) (Staphylococcus sp.) | MIC Coagulase Negative Staphylococcus (GC 6257) (Staphylococcus sp.; strain GC 6257)
4 µg/mL: MIC Coagulase Negative Staphylococcus (GC 4547) (Staphylococcus sp.) | MIC Coagulase Negative Staphylococcus (GC 4548) (Staphylococcus sp.) | MIC Coagulase Negative Staphylococcus (GC 4549) (Staphylococcus sp.) | MIC Coagulase Negative Staphylococcus (GC 4547) (Staphylococcus sp.; strain GC 4547) | MIC Coagulase Negative Staphylococcus (GC 4548) (Staphylococcus sp.; strain GC 4548) | MIC Coagulase Negative Staphylococcus (GC 4549) (Staphylococcus sp.; strain GC 4549)
